Measured values reported in patent publication US9204640B2, “2-acyloxy-pyrrolin-4-ones” (BAYER INTELLECTUAL PROPERTY GMBH, priority 2011, dated 2015).

Assays:
Type in all cases: in vivo
Liriomyza trifolii = Liriomyza trifolii spray test (LIRITR); conditions: Liriomyza trifolii, 168 h, 7dat, read-out: % Activity LIRITRI
Procedure: Liriomyza Trifolii-Spray Test ([…]) To produce a suitable preparation of active compound, 1 part by weight of active compound is mixed with the stated amount of solvent and emulsifier, and the concentrate is diluted with emulsifier-containing water to the desired concentration. If the addition of ammonium salts or/and penetrants is required, these are in each case added in a concentration of 1000 ppm to the solution of the preparations. Discs of bean leaves (Phaseolus vulgaris) which are infested by all stages of the leaf-mining fly (Liriomyza trifolii) are sprayed with an active compound preparation of the desired concentration. After the desired period of time, the activity in % is determined. 100% means that all of the leaf-mining flies have been killed; 0% means that none of the leaf-mining flies have been killed.

Tetranychus urticae = assay: Tetranychus test (TETRUR spray treatment; OP-resistant in Example 10); conditions: Tetranychus urticae, 120 h; 20 g/ha; 5dat; OP-resistant
Procedure: Tetranychus Test (TETRUR Spray Treatment)
To produce a suitable preparation of active compound, 1 part by weight of active compound is mixed with the stated amount of solvent and emulsifier, and the concentrate is diluted with emulsifier-containing water to the desired concentration. Discs of bean leaves (Phaseolus vulgaris) which are infested by all stages of the greenhouse red spider mite (Tetranychus urticae) are sprayed with an active compound preparation of the desired concentration.
After 5 days, the effect in % is determined. 100% means that all of the spider mites have been killed; 0% means that none of the spider mites have been killed.
Tetranychus Test, OP-Resistant (TETRUR Spray Treatment)
To produce a suitable preparation of active compound, 1 part by weight of active compound is mixed with the stated amount of solvent and emulsifier, and the concentrate is diluted with emulsifier-containing water to the desired concentration.
Discs of bean leaves (Phaseolus vulgaris) which are infested by all stages of the greenhouse red spider mite (Tetranychus urticae) are sprayed with an active compound preparation of the desired concentration.
After the desired period of time, the activity in % is determined. 100% means that all of the spider mites have been killed; 0% means that none of the spider mites have been killed.

Spodoptera frugiperda = Spodoptera frugiperda test (SPODFR spray treatment)
Procedure: Spodoptera Frugiperda Test (SPODFR Spray Treatment) [table] To produce a suitable preparation of active compound, 1 part by weight of active compound is mixed with the stated amount of solvent and emulsifier, and the concentrate is diluted with emulsifier-containing water to the desired concentration. Discs of corn leaves (Zea mays) are sprayed with an active compound preparation of the desired concentration and, after drying, populated with caterpillars of the armyworm (Spodoptera frugiperda). After 7 days, the effect in % is determined. 100% means that all caterpillars have been killed; 0% means that none of the caterpillars have been killed. Spodoptera Frugiperda Test (SPODFR Spray Treatment) To produce a suitable preparation of active compound, 1 part by weight of active compound is mixed with the stated amount of solvent and emulsifier, and the concentrate is diluted with emulsifier-containing water to the desired concentration. Discs of corn leaves (Zea mays) are sprayed with an active compound preparation of the desired concentration and, after drying, populated with caterpillars of the armyworm (Spodoptera frugiperda). After the desired period of time, the activity in % is determined. 100% means that all caterpillars have been killed; 0% means that none of the caterpillars have been killed.

Bemisia tabaci = Bemisia tabaci spray test (BEMITA); conditions: Bemisia tabaci, 168 h, 7dat
Procedure: Bemisia Tabaci-Spray Test ([…]) To produce a suitable preparation of active compound, 1 part by weight of active compound is mixed with the stated amount of solvent and emulsifier, and the concentrate is diluted with emulsifier-containing water to the desired concentration. Discs of cotton leaves (Gossypium hirsutum) which are infested by all stages of the whitefly (Bemisia tabaci) are sprayed with an active compound preparation of the desired concentration. After the desired period of time, the activity in % is determined. 100% means that all the whiteflies have been killed; 0% means that none of the whiteflies have been killed.

Myzus persicae [1] = assay: Myzus persicae test; hydroponic treatment (MYZUPE Sys); conditions: Myzus persicae, 144 h, 6dat
Procedure: Myzus Persicae Test; Hydroponic Treatment (MYZUPE Sys)
To produce a suitable preparation of active compound, 1 part by weight of active compound is mixed with the stated amounts of solvent and emulsifier, and the concentrate is diluted with water to the desired concentration.
The active compound preparation is mixed with water. The stated concentration refers to the amount of active compound per volume unit of water (mg/l=ppm). The treated water is filled into vessels containing a pea plant (Pisum sativum), and the plant is the infested with the green peach aphid (Myzus persicae).
After the desired period of time, the kill in % is determined 100% means that all of the aphids have been killed; 0% means that none of the aphids have been killed.

Digitaria sanguinalis = assay: Herbicidal post-emergence action, DIGSA; conditions: Digitaria sanguinalis, post-emergence, 20 g/ha
Procedure: (§1) 2. Herbicidal Post-Emergence Action
(§2) • Seeds of monocotyledonous and dicotyledonous weed and crop plants are placed in sandy loam in wood-fiber pots, covered with soil and cultivated in a greenhouse under good growth conditions. 2 to 3 weeks after sowing, the test plants are treated at the one-leaf stage. The test compounds, formulated as wettable powders (WP), are then, with a water application rate of 600 l/ha (converted), with 0.2% of wetting agent added, sprayed at various dosages onto the green parts of the plants. After the test plants have been kept in the greenhouse under optimum growth conditions for about 3 weeks, the activity of the preparations is rated visually in comparison to untreated controls (herbicidal activity in percent: 100% activity=the plants have died, 0% activity=like control plants). • In addition to the compounds mentioned above, the following compounds show an activity of 90-100% against Alopecurus myosuroides, Avena fatua, Digitaria sanguinalis, Echinocloa crus-galli, Lolium multiflorum, Setaria viridis and Sorghum halapense when applied by the post-emergence method at 320 g/ha: I-a-2, I-a-4, I-a-5, I-a-7, I-a-9, I-a-10, I-a-11, I-a-12, I-a-13, I-a-15. • In addition to the compounds mentioned above, the following compounds show an activity of 90-100% against Alopecurus myosuroides, Avena fatua, Echinocloa crus-galli, Lolium multiflorum and Setaria viridis when applied by the post-emergence method at 80 g/ha: I-a-1, I-b-2.
(§3) • Seeds of monocotyledonous and dicotyledonous weed plants and crop plants are placed in wood-fiber pots in sandy loam and covered with soil. The test compounds, formulated in the form of wettable powders (WP) or emulsion concentrates (EC), are then, as an aqueous suspension with a water application rate of 600-800 l/ha (converted), with 0.1-0.2% of wetting agent added, applied at various dosages to the surface of the covering soil. • After the treatment, the pots are placed in a greenhouse and kept under good growth conditions for the test plants. […] Herbicidal Post-Emergence Action (Post) • Seeds of monocotyledonous and dicotyledonous weed and crop plants are placed in sandy loam in wood-fiber pots, covered with soil and cultivated in a greenhouse under good growth conditions. 2-3 weeks (stages 10-13 according to the BBCH scale) after sowing, the test plants are treated at a height of 5-10 cm. The test compounds, formulated as wettable powders (WP) or emulsion concentrates (EC), are then, with a water application rate of 600-800 l/ha (converted), with 0.1-0.2% of wetting agent added, sprayed at various dosages onto the green parts of the plants.
(§4) AVEFA: Avena fatua LOLMU: Lolium multiflorum SETVI: Setaria viridis CHEAL: Chenopodium album VIOTR: Viola tricolor VERPE: Veronica persica ORYSA: Oryza sativa TRZAS: Triticum aestivum ZEAMX: Zea mays ALOMY: Alopecurus myosuroides DIGSA: Digitaria sanguinalis ECHCG: Echinocloa crus-galli SORHA: Sorghum halepense AVESA: Avena sativa AMARE: Amaranthus retroflexus SINAL: Sinapis alba STEME: Stellaria media

Echinocloa crus-galli = assay: Herbicidal post-emergence action, ECHCG; conditions: Echinochloa crus-galli, post-emergence, 20 g/ha
Procedure: as §1, §2, §3, §4

Alopecurus myosuroides = assay: Herbicidal post-emergence action, ALOMY; conditions: Alopecurus myosuroides, post-emergence, 20 g/ha
Procedure: as §1, §2, §3, §4

Myzus persicae [2] = assay: Myzus persicae test (MYZUPE Tau), leaf dipping; conditions: Myzus persicae, foliar, 144 h, 6dat
Procedure: Myzus Persicae Test (MYZUPE Tau) To produce a suitable preparation of active compound, 1 part by weight of active compound is mixed with the stated amount of solvent and emulsifier, and the concentrate is diluted with emulsifier-containing water to the desired concentration. Cabbage leaves (Brassica oleracea) which are heavily infested by the green peach aphid (Myzus persicae) are treated by dipping into the active compound preparation of the desired concentration. After the desired period of time, the kill in % is determined. 100% means that all of the aphids have been killed; 0% means that none of the aphids have been killed.

Setaria viridis = assay: Herbicidal pre-emergence action, SETVI; conditions: Setaria viridis, pre-emergence, 20 g/ha
Text: 1. Herbicidal Pre-Emergence Action
• Seeds of monocotyledonous and dicotyledonous weed plants and crop plants are placed in wood-fiber pots in sandy loam and covered with soil. The test compounds, formulated in the form of wettable powders (WP), are then, as an aqueous suspension with a water application rate of 600 l/ha (converted), with 0.2% of wetting agent added, applied at various dosages to the surface of the covering soil. • After the treatment, the pots are placed in a greenhouse and kept under good growth conditions for the test plants. The visual assessment of the damage to the test plants is carried out after a trial period of about 3 weeks by comparison with untreated controls (herbicidal activity in percent: 100% activity=the plants have died, 0% activity=like control plants). • In addition to the compounds mentioned above, the following compounds show an activity of 90-100% against Alopecurus myosuroides, Digitaria sanguinalis, Echinocloa crus-galli, Lolium multiflorum, Setaria viridis and Sorghum halapense when applied by the pre-emergence method at 320 g/ha of a.i.: I-a-2, I-a-10, I-a-11, I-a-12.
1. Herbicidal Pre-Emergence Action (Pre)
as §3, §4

Phaedon cochleariae = assay: Phaedon test (PHAECO spray treatment); conditions: application rate 500 g/ha, after 7 days, Chinese cabbage leaf discs
Procedure: Phaedon Test ([…] Spray Treatment) [table] To produce a suitable preparation of active compound, 1 part by weight of active compound is mixed with the stated amount of solvent and emulsifier, and the concentrate is diluted with emulsifier-containing water to the desired concentration. Discs of Chinese cabbage (Brassica pekinensis) are sprayed with an active compound preparation of the desired concentration and, after drying, populated with larvae of the mustard beetle (Phaedon cochleariae). After 7 days, the effect in % is determined 100% means that all beetle larvae have been killed; 0% means that none of the beetle larvae have been killed. Phaedon Test ([…] Spray Treatment) To produce a suitable preparation of active compound, 1 part by weight of active compound is mixed with the stated amount of solvent and emulsifier, and the concentrate is diluted with emulsifier-containing water to the desired concentration. Discs of Chinese cabbage (Brassica pekinensis) are sprayed with an active compound preparation of the desired concentration and, after drying, populated with larvae of the mustard beetle (Phaedon cochleariae). After the desired period of time, the activity in % is determined. 100% means that all beetle larvae have been killed; 0% means that none of the beetle larvae have been killed.

Myzus persicae [3] = assay: Myzus test (MYZUPE spray treatment); conditions: application rate 500 g/ha, after 5 days, Chinese cabbage leaf discs
Procedure: Myzus Test (MYZUPE Spray Treatment) [table] To produce a suitable preparation of active compound, 1 part by weight of active compound is mixed with the stated amount of solvent and emulsifier, and the concentrate is diluted with emulsifier-containing water to the desired concentration. Discs of Chinese cabbage (Brassica pekinensis) infected by all stages of the green peach aphid (Myzus persicae) are sprayed with an active compound preparation of the desired concentration. After 5 days, the effect in % is determined 100% means that all of the aphids have been killed; 0% means that none of the aphids have been killed. Myzus Test (MYZUPE Spray Treatment) To produce a suitable preparation of active compound, 1 part by weight of active compound is mixed with the stated amount of solvent and emulsifier, and the concentrate is diluted with emulsifier-containing water to the desired concentration. Discs of Chinese cabbage (Brassica pekinensis) infected by all stages of the green peach aphid (Myzus persicae) are sprayed with an active compound preparation of the desired concentration. After the desired period of time, the activity in % is determined. 100% means that all of the aphids have been killed; 0% means that none of the aphids have been killed.

Nilaparvata lugens = Nilaparvata lugens test (NILALU hydroponic treatment); conditions: 20 ppm, after 7 days
Procedure: Nilaparvata Lugens Test ([…] Hydroponic Treatment) To produce a suitable preparation of active compound, 1 part by weight of active compound is mixed with the stated amount of solvent and emulsifier, and the concentrate is diluted with emulsifier-containing water to the desired concentration. The active compound preparation is pipetted into water. The stated concentration refers to the amount of active compound per volume unit of water (mg/l=ppm), the sample is then infected with the brown planthopper (Nilaparvata lugens). After 7 days, the effect in % is determined 100% means that all of the planthoppers have been killed; 0% means that none of the planthoppers have been killed.

Meloidogyne incognita = Meloidogyne incognita test (MELGIN); conditions: 20 ppm, after 14 days, lettuce roots
Procedure: Meloidogyne Incognita Test (MELGIN) [table] To prepare a suitable active compound preparation, 1 part by weight of active compound is mixed with the stated amounts of solvent and the concentrate is diluted with water to the desired concentration. Containers are filled with sand, solution of active compound, Meloidogyne incognita egg/larvae suspension and lettuce seeds. The lettuce seeds germinate and the plants develop. On the roots, galls are formed. After 14 days, the nematicidal effect in % is determined by the formation of galls. 100% means that no galls have been found; 0% means that the number of galls on the treated plants corresponds to the untreated control.

## CCOC(=O)OC1=C(c2c(C)cc(C)cc2C)C(=O)NC12CCC(COC)CC2 (centres unmarked) [I-1-c-16 known from WO 07/048545]
Liriomyza trifolii
  inhibition at 20 g/ha: 0%
Tetranychus urticae
  inhibition at 20 g/ha: 0%
Spodoptera frugiperda; Spodoptera frugiperda, 168 h, 500 g/ha, 7dat
  inhibition at 500 g/ha: 67%
Bemisia tabaci
  inhibition at 20 g/ha: 27%

## CCOC(=O)OC1=C(c2c(C)cc(I)cc2CC)C(=O)NC12CCC(OC)CC2 (centres unmarked) [I-1-c-1 known from WO 06/029799]
Myzus persicae [1]
  inhibition at 20 ppm: 60%
Digitaria sanguinalis
  inhibition at 20 g/ha: 30%
Echinocloa crus-galli
  inhibition at 20 g/ha: 30%
Alopecurus myosuroides
  inhibition at 20 g/ha: 30%
Myzus persicae [2]
  inhibition at 20 ppm: 50%
Setaria viridis
  inhibition at 20 g/ha: 20%

## CCc1cc(C)cc(Br)c1C1=C(OC(=O)C(C)(C)C)NC(C)(C)C1=O [I-a-13]
Phaedon cochleariae
  effect in % (beetle larvae killed): 83%
Myzus persicae [3]
  effect in % (aphids killed): 80%
Nilaparvata lugens
  effect in % (planthoppers killed): 100%

## COc1cc(C)cc(C)c1C1=C(OC(=O)C(C)(C)C)NC2(CCC(OC)CC2)C1=O (centres unmarked) [I-a-2]
Phaedon cochleariae
  effect in % (beetle larvae killed): 100%
Spodoptera frugiperda; application rate 500 g/ha, after 7 days, corn leaf discs
  effect in % (caterpillars killed): 100%
Myzus persicae [3]
  effect in % (aphids killed): 100%
Meloidogyne incognita
  nematicidal effect in % (formation of galls): 100%
